Source: patent publication US20150224089A1, “COMBINATIONS OF IKKi/TBK1 INHIBITORS WITH BETA ADRENERGIC AGONISTS OR SYMPATHETIC NERVOUS SYSTEM ACTIVATORS” (THE REGENTS OF THE UNIVERSITY OF MICHIGAN, priority 2014, published 2015)

What was measured:
3T3-L1 adipocytes [1] = experiment: cAMP levels in 3T3-L1 adipocytes; type: cell-based
Experimental: (§1) (A) Glycerol release from 3T3-L1 adipocytes treated with or without different concentrations of TNFα as indicated for 24 hr followed by treatment with or without 10 μM ISO or 50 μM FSK. (B) cAMP levels from 3T3-L1 adipocytes treated with or without 100 ng/ml TNFα for 24 hr followed by treatment with or without 10 μM ISO or 50 μM FSK in the presence or absence of pretreatment of 50 μM Amlexanox (Am). (C) cAMP levels from 3T3-L1 adipocytes treated with or without 100 ng/ml TNFα for 24 hr followed by treatment with or without 50 μM FSK in the presence or absence of pretreatment of 1 μM CAY10576 (CAY). (D) Immunoblots of whole cell lysates from 3T3-L1 adipocytes treated with or without different concentrations of TNFα as same as FIG. 2A for 24 hr followed by treatment with or without 10 μM ISO or 50 μM FSK. Results were replicated in multiple experiments. ‘[’ indicates total HSL. ‘n.s.’ represents non-specific band. Arrow indicates CGI-58. (E) Immunoblots of whole cell lysates from 3T3-L1 adipocytes treated with or without 50 ng/ml TNFα or 100 μg/ml poly (I:C) for 24 hr followed by treatment with or without 10 μM ISO for 15 min in the presence or absence of pretreatment with increasing concentrations (0, 10, 50, and 200 μM) of amlexanox for 30 min.
(A) cAMP levels from 3T3-L1 adipocytes expressing empty vector, Flag-IKKε, or Flag-TBK1 treated with or without 50 μM FSK, 250 μM IBMX, or together for 15 min. (B) cAMP levels from 3T3-L1 adipocytes expressing empty vector, Flag-IKKε, or Flag-TBK1 treated with or without 10 μM ISO or 50 μM FSK together with or without 10 μM Zardaverine (Zarda) for 15 min. (C) 32P phospho-image of in vitro kinase reaction using either immunoprecipitated HA-PDE3B from HEK293T cells or 1 μg MBP (myelin basic protein) as a substrate with recombinant kinases as indicated. (D) Immunoblots of immunoprecipitation with anti-HA antibodies followed by treatment with or without CIP (top panel) and whole cell lysates (bottom panel) from Cos-1 cells co-expressing HA-PDE3B with Flag-IKKε/TBK1 or Flag-IKKε/TBK1 K38A. D.E. stands for dark exposure and L.E. stands for light exposure. (E) Immunoblots of GST-14-3-3 pulldown from HEK293T cells co-expressing HA-PDE3B with Flag-TBK1 or Flag-TBK1 K38A.
Obesity is accompanied by infiltration of proinflammatory macrophages into adipose tissue; these cells secrete inflammatory cytokines, such as TNFα, which generate insulin resistance by stimulating catabolic pathways (Hotamisligil, 2006; Lumeng et al., 2007; Ye and Keller, 2010; Ouchi et al., 2011; herein incorporated by reference in their entireties). Although TNFα is known to increase lipolysis in adipocytes (Zhang et al., 2002; Souza et al., 2003; Green et al., 2004; Plomgaard et al., 2008; herein incorporated by reference in their entireties), there is also evidence of a counterinflammatory response in obesity that may serve to repress energy expenditure (Gregor and Hotamisligil, 2011; Saltiel, 2012; Calay and Hotamisligil, 2013; Reilly et al., 2013; herein incorporated by reference in their entireties). Experiments were conducted during development of embodiments of the present invention using TNFα to model the inflammatory milieu of obese adipose tissue in cell culture to determine whether the cytokine might also regulate β-adrenergic signaling in this context. While short-term treatment with TNFα augmented the increase in cAMP produced by forskolin treatment, this effect declined after 12 hr. […] Thus, the catabolic effects of the proinflammatory cytokine TNFα in adipocytes are transient and followed by an inhibitory phase.
Treatment of 3T3-L1 adipocytes with TNFα for 24 hr induced the expression of IKKε and increased TBK1 phosphorylation at the active site in a manner that was dependent on the activity of IKKβ and the NFκB pathway (Reilly et al., 2013; herein incorporated by reference in its entirety). […]

diet-induced obese mice = experiment: Serum FFA and glycerol after CL-316,243 injection in ND- or HFD-fed mice; type: in vivo; details: normal diet mice, vehicle and amlexanox-treated; 15 min after IP CL-316,243 injection
Experimental: (A) Fold increase in serum FFA (left panel) and glycerol (right panel) levels 15 min after CL-316,243 injection in ND- or HFD-fed mice treated with amlexanox or vehicle control for 4 days. (B) Glycerol release from ex vivo epididymal (left panel) and inguinal (right panel) WATs after 1 hr pretreatment with amlexanox or vehicle. CL-316,243 treatment was started at time zero. (C) Immunoblots in inguinal WAT lysates from FIG. 5B after 60 min of CL-316,243 treatment. (D) cAMP levels in epididymal WAT 20 min after CL-316,243 (CL) or saline control injection in HFD-fed mice treated with amlexanox or vehicle control for 4 days. (E) Immunoblots in epididymal WAT 5 min after CL-316,243 or saline control injection in HFD-fed mice treated with amlexanox or vehicle control for 4 days. (F) Relative oxygen comsumption of mice in each treatment group.
To test the functional importance of the noncanonical IKKs in maintaining energy balance in vivo, experiments were conducted during development of embodiments of the present invention to investigate whether the administration of a selective inhibitor of IKKε and TBK1, amlexanox, can reverse diet-induced catecholamine resistance in rodentsMice were fed a high fat or normal diet, treated them with amlexanox by oral gavage for 4 days (prior to the point when weight loss is seen), and then gave a single intraperitoneal (IP) injection of the β3-adrenergic agonist CL-316,243. Injection of CL-316,243 stimulated a threefold increase in serum FFA and glycerol levels in both vehicle and amlexanox-treated mice on normal diet (ND).

3T3-L1 adipocytes [2] = experiment: Ucp1 gene expression in 3T3-L1 adipocytes; type: cell-based; details: empty vector-expressing cells; 10 μM for 4 hr; treated relative to control samples
Experimental: (§2) (A) Fold increase in Ucp1 expression in 3T3-L1 adipocytes expressing empty vector, Flag-IKKε, or Flag-IKKε K38A following treatment with or without 10 μM ISO (black bars) or 10 μM CL-316,243 (CL, gray bars) for 4 hr. (B) Glycerol release from 3T3-L1 adipocytes expressing empty vector (white bars), Flag-IKKε (black bars), or Flag-IKKε K38A (gray bars) treated with or without 10 μM ISO or 10 μM CL. (C) Immunoblots of whole cell lysates from FIG. 1B. Results were replicated in triplicate. D.E. stands for dark exposure and L.E. stands for light exposure. (D) Immunoblots of whole cell lysates from 3T3-L1 adipocytes expressing empty vector or Flag-IKKε treated with or without 50 μM FSK for 15 min. (E) cAMP levels from 3T3-L1 adipocytes expressing empty vector, Flag-IKKε, or Flag-IKKε K38A treated with or without 10 μM ISO or 50 μM FSK for 15 min.
Sympathetic activation of adipose tissue is involved in maintaining energy balance by stimulating lipolysis and fat oxidation (Coppack et al., 1994; Langin, 2006; Festuccia et al., 2011; herein incorporated by reference in their entireties). Activation of β-adrenergic signaling by either β-adrenergic agonists or cold exposure in white and brown adipose tissue initiates a cascade of events through cyclic AMP (cAMP), culminating in the transcriptional upregulation of Ucp1, which results in increased proton leak and energy expenditure (Himms-Hagen et al., 2000; Cao et al., 2004; Yehuda-Shnaidman et al., 2010; herein incorporated by reference in their entireties). […] This effect was further analyzed by overexpressing IKKε in 3T3-L1 adipocytes and examining Ucp1 gene expression after treatment with the non-selective β-adrenergic agonist, isoproterenol (ISO), or the β3-adrenergic agonist, CL-316,243. Fold difference in Ucp1 gene expression was calculated by normalization of relative Ucp1 mRNA levels in treated relative to control samples. […] The induction of Ucp1 gene expression in response to ISO or CL-316,243 was blunted when WT IKKε was overexpressed in these cells. […]

3T3-L1 adipocytes [3] = experiment: Glycerol release (lipolysis) from 3T3-L1 adipocytes; type: cell-based; details: for lipolysis (glycerol release): empty vector-expressing cells, 10 μM
Experimental: as §2, §1
The obesity-dependent increase was modeled in the noncanonical IKKs by overexpressing IKKε in 3T3-L1 adipocytes, followed by assay of glycerol release in response to ISO or CL-316,243. […] Overexpression of TBK1 reduced phosphorylation of HSL in response to isoproterenol or the adenylyl cyclase activator, forskolin (FIG. 1). Identical results were obtained when IKKε was overexpressed in 3T3-L1 adipocytes stimulated with forskolin (FIG. 1D), as detected by western blotting with an anti-phospho-PKA substrate motif antibody. […]

3T3-L1 adipocytes [4] = experiment: Immunoblots of β-adrenergic/PKA signaling (HSL, perilipin, PKA substrate, p38 phosphorylation) in 3T3-L1 adipocytes; type: cell-based; details: treatment with Poly (I:C)
Experimental: as §1, with “Results were replicated in multiple experiments. ‘[’ indicates total HSL. ‘n.s.’ represents non-specific band.” left out
Experiments were conducted during development of embodiments of the present invention to determine whether the repression of β-adrenergic sensitivity produced by longer-term treatment with TNFα is due to increased activity of the noncanonical IKKs.

For COc1cc2ncn(-c3cc(OCc4ccccc4S(C)(=O)=O)c(C#N)s3)c2cc1OC [CAY10576], which “rescue of TNFα-decreased forskolin-stimulated cAMP production” value (3T3-L1 adipocytes [1]; preincubation with 1 μM CAY10576, 100 ng/ml TNFα 24 hr, 50 μM FSK) is on record?
The value was “largely rescued”.

How did the “increase in serum FFA levels” value (diet-induced obese mice) turn out when C[C@H](Cc1ccc2c(c1)OC(C(=O)[O-])(C(=O)[O-])O2)NC[C@H](O)c1cccc(Cl)c1.[Na+].[Na+] [CL-316,243] was run?
Its value is “threefold”.

What about the “increase in serum glycerol levels” value (diet-induced obese mice) of the same molecule?
Its value is “threefold”.

What about the “increase in Ucp1 mRNA levels” value (3T3-L1 adipocytes [2]) of the same molecule?
Its value is “twofold”.

What about the “lipolysis (glycerol release)” value (3T3-L1 adipocytes [3]) of the same molecule?
The value was “increased lipolysis”.

How did the “cAMP production in response to forskolin in adipocytes expressing IKKε or TBK1” value (3T3-L1 adipocytes [1]; 250 μM IBMX, 50 μM FSK, 15 min) turn out when CC(C)Cn1c(=O)n(C)c(=O)c2[nH]cnc21 [IBMX] was run?
The value was “rescued the full stimulation of cAMP production”.

Which “increase in Ucp1 mRNA levels” value (3T3-L1 adipocytes [2]) does the source give for CC(C)NCC(O)c1ccc(O)c(O)c1 (centres unmarked) [isoproterenol] here?
Its value is 1.6 fold.

What about the “lipolysis (glycerol release)” value (3T3-L1 adipocytes [3]) of the same molecule?
The value was “increased lipolysis”.

With Poly (I:C) as the molecule, how does the “stimulation of cAMP production in response to β-adrenergic stimulation” value (3T3-L1 adipocytes [1]; treatment with Poly (I:C)) read?
The value was “reduced”.

And the “stimulation of lipolysis in response to β-adrenergic stimulation” value (3T3-L1 adipocytes [3]; treatment with Poly (I:C))?
Its value is “reduced”.

And the “stimulation of phosphorylation in response to β-adrenergic stimulation” value (3T3-L1 adipocytes [4])?
The value was “reduced”.
